Data as given in patent US20260376293A1, “METHODS FOR STUDYING GPR158 PHARMACOLOGY AND IDENTIFICATION OF ITS LIGANDS” (UNIVERSITY OF FLORIDA RESEARCH FOUNDATION, INCORPORATED, priority 2022, published 2026).

Target: T1, GPR158 (Homo sapiens, UniProt Q5T848)
T1 construct: expressed in transfected cells; host or cells: HEK293T/17
T1 sequence (Q5T848 24-1215): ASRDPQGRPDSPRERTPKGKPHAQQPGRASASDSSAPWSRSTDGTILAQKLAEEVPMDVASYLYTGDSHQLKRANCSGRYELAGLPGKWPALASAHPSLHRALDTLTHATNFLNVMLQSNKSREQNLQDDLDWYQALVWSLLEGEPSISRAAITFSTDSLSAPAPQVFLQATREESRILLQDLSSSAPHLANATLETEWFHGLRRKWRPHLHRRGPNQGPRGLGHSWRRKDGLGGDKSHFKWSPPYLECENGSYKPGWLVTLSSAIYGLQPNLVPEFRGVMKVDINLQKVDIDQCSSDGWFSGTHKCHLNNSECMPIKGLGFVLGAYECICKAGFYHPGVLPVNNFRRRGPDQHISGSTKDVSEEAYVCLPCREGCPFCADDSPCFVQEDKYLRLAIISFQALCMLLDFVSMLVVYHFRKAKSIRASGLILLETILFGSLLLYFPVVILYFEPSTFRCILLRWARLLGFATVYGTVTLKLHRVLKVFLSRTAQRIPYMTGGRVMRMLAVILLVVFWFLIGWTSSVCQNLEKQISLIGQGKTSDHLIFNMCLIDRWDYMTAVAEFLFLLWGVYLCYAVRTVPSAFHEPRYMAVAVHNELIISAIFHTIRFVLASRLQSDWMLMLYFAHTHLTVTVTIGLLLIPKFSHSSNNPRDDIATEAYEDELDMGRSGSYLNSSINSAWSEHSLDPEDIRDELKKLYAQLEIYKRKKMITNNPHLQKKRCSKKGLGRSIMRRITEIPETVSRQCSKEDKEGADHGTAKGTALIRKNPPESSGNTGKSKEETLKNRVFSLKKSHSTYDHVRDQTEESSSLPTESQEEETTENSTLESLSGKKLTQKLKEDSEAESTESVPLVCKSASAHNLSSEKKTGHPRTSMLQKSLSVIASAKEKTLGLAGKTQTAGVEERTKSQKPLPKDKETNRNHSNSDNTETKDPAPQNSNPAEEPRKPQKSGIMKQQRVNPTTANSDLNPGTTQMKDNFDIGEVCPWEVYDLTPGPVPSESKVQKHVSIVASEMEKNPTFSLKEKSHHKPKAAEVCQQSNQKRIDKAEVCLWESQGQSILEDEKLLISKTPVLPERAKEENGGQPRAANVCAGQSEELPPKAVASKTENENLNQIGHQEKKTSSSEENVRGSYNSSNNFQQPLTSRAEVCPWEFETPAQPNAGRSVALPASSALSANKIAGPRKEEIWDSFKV
T1 sequence (P49802 1-495 partner): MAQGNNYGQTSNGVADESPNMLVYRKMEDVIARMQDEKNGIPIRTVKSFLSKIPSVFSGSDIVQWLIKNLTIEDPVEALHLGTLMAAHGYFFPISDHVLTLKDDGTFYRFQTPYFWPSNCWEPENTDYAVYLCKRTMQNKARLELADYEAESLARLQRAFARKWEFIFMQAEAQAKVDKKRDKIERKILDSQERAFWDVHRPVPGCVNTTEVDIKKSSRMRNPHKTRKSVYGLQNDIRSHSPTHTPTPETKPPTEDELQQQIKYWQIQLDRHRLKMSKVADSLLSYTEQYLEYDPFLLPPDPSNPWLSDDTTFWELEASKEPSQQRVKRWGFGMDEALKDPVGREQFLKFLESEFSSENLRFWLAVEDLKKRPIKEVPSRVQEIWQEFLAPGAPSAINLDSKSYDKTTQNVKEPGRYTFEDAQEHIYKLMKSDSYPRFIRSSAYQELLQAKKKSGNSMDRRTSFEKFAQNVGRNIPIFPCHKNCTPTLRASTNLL
T1 sequence (O14775 1-395 partner): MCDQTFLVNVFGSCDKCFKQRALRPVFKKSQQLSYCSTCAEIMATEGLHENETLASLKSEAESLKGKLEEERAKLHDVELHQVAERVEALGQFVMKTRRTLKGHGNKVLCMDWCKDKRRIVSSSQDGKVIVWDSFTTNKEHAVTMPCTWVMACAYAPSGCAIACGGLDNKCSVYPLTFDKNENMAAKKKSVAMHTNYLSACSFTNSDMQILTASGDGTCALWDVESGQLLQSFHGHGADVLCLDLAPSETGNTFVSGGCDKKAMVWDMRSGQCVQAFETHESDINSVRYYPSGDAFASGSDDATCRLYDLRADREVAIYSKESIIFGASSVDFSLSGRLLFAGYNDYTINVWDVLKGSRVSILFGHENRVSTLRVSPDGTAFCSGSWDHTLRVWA
Assay: HTRF cAMP Gαi assay, HEK293T/17 cells
Type: cell-based
Conditions: forskolin; GPR158-RGS7/Gβ5, HEK293T/17
Method: FIGS. 18A-18C: A. Schematic representation of HTRF Gαi CAMP assay. B. cAMP standard curve to establish assay window and dynamic range. The data shown here indicate the HTRF ratio plotted as a function of various concentrations of cAMP standards (0.17 nM to 712 nM). The curve fitting was performed using Nonlinear regression analysis in Graphpad Prism software. C. Gly treatment of GPR158-RGS7/Gβ5 expressing HEK293T/17 cells leads to depletion of cAMP levels in a concentration dependent manner. Data shown here represent the HTRF ratio normalized with respect to the buffer treated cells (control) (Mean±SEM from 1 experiment performed in triplicates).
HEK293T/17 cells were transfected with GPR158, RGS7 and Gβ5 plasmids as mentioned above by Maxcyte electroporation. 24 hours post transfection, cells were harvested by centrifugation, counted, and seeded in a white 384 well plate at a density of 6000 cells per well after resuspending in the stimulation buffer provided with the kit. […] The HTRF signal was measured using the HTRF optic module (donor excitation: 337 nm, donor emission: 620 nm, acceptor emission 665 nm) and laser energy source in the Pherastar FSX microplate reader (BMG Labtech).
The data were plotted as the ratio of fluorescence emission intensities by acceptor and donor (Em 665 nm/Em 620 nm). […]

`NCC(=O)O` [glycine] was tested, and the “HTRF signal change (cAMP decrease)” value was “increase in HTRF signal in a Gly dose dependent fashion”.
